Patent US20160263087A1, “NOVEL 4-(INDOL-3-YL)-PYRAZOLE DERIVATIVES, PHARMACEUTICAL COMPOSITIONS AND METHODS FOR USE” (ITEOS THERAPEUTICS, priority 2013, published 2016)

Legend:
human TDO2 = human TDO2 (Homo sapiens, UniProt P48775); test: Assay for TDO2 enzymatic activity determination; assay type: biochemical; parameters: made in house; conditions: human recombinant TDO2, L-Trp 1 mM, room temperature, one hour, kynurenine absorbance at 480 nm
Experimental: To measure the TDO2 activity, the reaction mixture contained (final concentrations) potassium phosphate buffer (50 mM, pH 7.5), ascorbic acid (0.25 M), methylene blue (0.125 μM), catalase (40 units/mL, from bovine liver, Sigma), and human recombinant TDO2 enzyme (prepared as described in Dolusic et al. J. Med. Chem.; 2011, 54, 5320-5334; 0.9 μg) without or with the compounds of the present invention at the indicated concentrations (total volume 112.5 μL). The reaction was initiated by the addition of 37.5 μL of L-Trp (final concentration 1 mM) at room temperature. The reaction was conducted at room temperature during one hour and stopped by the addition of 30 μL of 30% (w/v) trichloroacetic acid.
To convert N-formylkynurenine into kynurenine, the reaction mixture was incubated at 65° C. for 30 min. Then 150 μL of the reaction mixture was mixed with 120 μL of 2.5% (w/v) 4-(dimethylamino)-benzaldehyde in acetic acid and incubated for 5 min at room temperature. Kynurenine concentrations were determined by measuring the absorbance at 480 nm. A standard curve was made with pure kynurenine. The TDO activity was measured as described above using ten serial concentrations of the compounds of the present invention. Data were fitted using the Prism software (GraphPad Software, Inc.).

Chain of human TDO2 (P48775 whole entry): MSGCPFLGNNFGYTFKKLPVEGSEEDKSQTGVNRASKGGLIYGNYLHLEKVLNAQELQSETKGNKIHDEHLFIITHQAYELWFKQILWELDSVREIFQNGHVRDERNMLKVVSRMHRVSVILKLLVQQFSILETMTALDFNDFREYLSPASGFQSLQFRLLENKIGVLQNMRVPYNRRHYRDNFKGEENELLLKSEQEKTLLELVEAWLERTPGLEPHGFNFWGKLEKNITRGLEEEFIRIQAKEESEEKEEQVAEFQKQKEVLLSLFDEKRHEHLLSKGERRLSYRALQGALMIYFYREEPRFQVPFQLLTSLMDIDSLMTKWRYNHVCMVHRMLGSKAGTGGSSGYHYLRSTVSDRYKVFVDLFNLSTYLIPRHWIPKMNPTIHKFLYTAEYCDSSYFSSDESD

IC50 (human TDO2) [µM] | melting point [°C] | Compound
10 to 100 | – | Cc1nn(CCS(C)(=O)=O)c(C)c1-c1c[nH]c2cc(F)ccc12 [Compound 33, 3-(3,5-dimethyl-1-(2-(methylsulfonyl)ethyl)-1H-pyrazol-4-yl)-6-fluoro-1H-indole]
< 1 | – | Cc1nn(CC2CCNCC2)cc1-c1c[nH]c2cc(F)ccc12 [Compound 56, 6-fluoro-3-(3-methyl-1-(piperidin-4-ylmethyl)-1H-pyrazol-4-yl)-1H-indole]
– | 138.9 to 139.6 | Fc1ccc2c(-c3cnn(CC4CCOCC4)c3)c[nH]c2c1 [Compound 58, 6-fluoro-3-(1-((tetrahydro-2H-pyran-4-yl)methyl)-1H-pyrazol-4-yl)-1H-indole]
1 to 10 | – | C=CC(=O)N1CCC(n2cc(-c3c[nH]c4cc(F)ccc34)cn2)CC1 [Compound 102, 1-(4-(4-(6-fluoro-1H-indol-3-yl)-1H-pyrazol-1-yl)piperidin-1-yl)prop-2-en-1-one]
– | 179.5 to 180.8 | CC(=O)NCCn1cc(-c2c[nH]c3cc(F)ccc23)cn1 [Compound 21, N-(2-(4-(6-fluoro-1H-indol-3-yl)-1H-pyrazol-1-yl)ethyl)acetamide]
– | 222.8 to 223.7 | CN1CCC(n2cc(-c3c[nH]c4cc(F)ccc34)cn2)CC1 [Compound 91, 6-fluoro-3-(1-(1-methylpiperidin-4-yl)-1H-pyrazol-4-yl)-1H-indole]
1 to 10 | – | Cc1c(-c2c[nH]c3cc(F)ccc23)cnn1CC1CCNCC1 [Compound 57, 6-fluoro-3-(5-methyl-1-(piperidin-4-ylmethyl)-1H-pyrazol-4-yl)-1H-indole]
10 to 100 | – | CC(=O)N1CCC(n2cc(-c3c[nH]c4cc(F)ccc34)c(C)n2)CC1 [Compound 94, 1-(4-(4-(6-fluoro-1H-indol-3-yl)-3-methyl-1H-pyrazol-1-yl)piperidin-1-yl)ethanone]
1 to 10 | – | CCS(=O)(=O)N1CCC(n2cc(-c3c[nH]c4cc(F)ccc34)cn2)CC1 [Compound 98, 3-(1-(1-(ethylsulfonyl)piperidin-4-yl)-1H-pyrazol-4-yl)-6-fluoro-1H-indole]
10 to 100 | – | Cc1nn(CC2CCNCC2)c(C)c1-c1c[nH]c2cc(F)ccc12 [Compound 55, 3-(3,5-dimethyl-1-(piperidin-4-ylmethyl)-1H-pyrazol-4-yl)-6-fluoro-1H-indole]
1 to 10 | – | CC(=O)N1CCC(n2ncc(-c3c[nH]c4cc(F)ccc34)c2C)CC1 [Compound 95, 1-(4-(4-(6-fluoro-1H-indol-3-yl)-5-methyl-1H-pyrazol-1-yl)piperidin-1-yl)ethanone]
1 to 10 | – | O=S(=O)(N1CCC(n2cc(-c3c[nH]c4cc(F)ccc34)cn2)CC1)C(F)(F)F [Compound 92, 6-fluoro-3-(1-(1-((trifluoromethyl)sulfonyl)piperidin-4-yl)-1H-pyrazol-4-yl)-1H-indole]
1 to 10 | – | Cc1nn(CCC(N)=O)c(C)c1-c1c[nH]c2cc(F)ccc12 [Compound 9, 3-(4-(6-fluoro-1H-indol-3-yl)-3,5-dimethyl-1H-pyrazol-1-yl)propanamide]
1 to 10 | – | O=S(=O)(C1CC1)N1CCC(n2cc(-c3c[nH]c4cc(F)ccc34)cn2)CC1 [Compound 97, 3-(1-(1-(cyclopropylsulfonyl)piperidin-4-yl)-1H-pyrazol-4-yl)-6-fluoro-1H-indole]
1 to 10 | – | COCCS(=O)(=O)N1CCC(n2cc(-c3c[nH]c4cc(F)ccc34)cn2)CC1 [Compound 96, 6-fluoro-3-(1-(1-((2-methoxyethyl)sulfonyl)piperidin-4-yl)-1H-pyrazol-4-yl)-1H-indole]
1 to 10 | – | NC(=O)CCn1cc(-c2c[nH]c3cc(F)c(F)cc23)cn1 [Compound 8, 3-(4-(5,6-difluoro-1H-indol-3-yl)-1H-pyrazol-1-yl)propanamide]
1 to 10 | – | CC(C)S(=O)(=O)N1CCC(n2cc(-c3c[nH]c4cc(F)ccc34)cn2)CC1 [Compound 99, 6-fluoro-3-(1-(1-(isopropylsulfonyl)piperidin-4-yl)-1H-pyrazol-4-yl)-1H-indole]
